Experimental findings from ChEMBL document CHEMBL1145651, “A constituent of Pterocarpus marsupium, (-)-epicatechin, as a potential antidiabetic agent” (1983) are described below.

Assay type in all cases: functional
Holding throughout (conditions): route intraperitoneal

Experiment [1] relates to Rattus norvegicus. Nature of the experiment: Antihyperglycemic activity in Wistar rat assessed as decrease in alloxan-induced blood glucose level at 30 mg/kg, ip administered 72 hrs after alloxan challenge.
In experiment [2] the test system is Rattus norvegicus. Nature of the experiment: Antihyperglycemic activity in Wistar rat assessed as decrease in alloxan-induced blood glucose level at 30 mg/kg, ip administered 72 to 288 hrs after alloxan challenge.
For experiment [3], the system named is Rattus norvegicus. Nature of the experiment: Antihyperglycemic activity in Wistar rat assessed as decrease in alloxan-induced blood glucose level at 30 mg/kg, ip administered 120 hrs after alloxan challenge.
The test system of experiment [4] is Rattus norvegicus. In words: Antihyperglycemic activity in Wistar rat assessed as decrease in alloxan-induced blood glucose level at 30 mg/kg, ip administered 288 hrs after alloxan challenge.
Experiment [5] relates to Rattus norvegicus. In words: Antihyperglycemic activity in Wistar rat assessed as decrease in alloxan-induced blood glucose level at 30 mg/kg, ip administered 168 hrs after alloxan challenge.
For experiment [6], the system named is Rattus norvegicus. In words: Antihyperglycemic activity in Wistar rat assessed as decrease in alloxan-induced blood glucose level at 30 mg/kg, ip pretreated 24 hrs before alloxan challenge.

As to `Oc1cc(O)c2c(c1)O[C@H](c1ccc(O)c(O)c1)[C@H](O)C2` [(-)-EPICATECHIN], the Activity in the experiment on Rattus norvegicus [1] was 138 mg/dL; in the experiment with Rattus norvegicus [2], 129 mg/dL; in the experiment on Rattus norvegicus [3], 120 mg/dL; in the experiment on Rattus norvegicus [4], 117 mg/dL; in the experiment on Rattus norvegicus [5], 128 mg/dL; in the experiment with Rattus norvegicus [6], 111 mg/dL.
